According to the RepoRT retention time repository:
Structures can show the parent of a compound that is named as a salt.

Test: RP, Waters ACQUITY Premier BEH C18, 100 × 2.1 mm, 1.7 µm, 40 °C, 0.3 to 0.4 mL/min, estimated dead time 0.73 min; A: water + 0.1% formic acid; B: acetonitrile + 0.1% formic acid; gradient (min/%B) 0/0.5 0.1/0.5 10/80 10.1/99.5 12/0.5 12.1/0.5 14.5/0.5
Conditions: stereoisomer not certain

`COc1cc(CCC(=O)O)ccc1O` [DIHYDROFERULIC ACID] and `COc1cc(CCN)ccc1O` [3-METHOXYTYRAMINE] are within 1.5-fold of each other in LC retention time: 5.08 min for the first, 3.47 min for the second.

Going from `O=C(O)c1cc(=O)[nH]c(=O)[nH]1` [OROTATE] to `O=C(O)c1cc(O)cc(O)c1` [3,5-DIHYDROXYBENZOIC ACID], the LC retention time rises from 1.19 min to 2.21 min (1.9-fold).

`Nc1c(O)cccc1C(=O)O` [3-HYDROXYANTHRANILATE] and `O=C(O)c1cccc(O)c1O` [2,3-DIHYDROXYBENZOATE] are within 1.5-fold of each other in LC retention time: 3.85 min for the first, 4.71 min for the second.

`O=c1c(-c2ccc(O)cc2)coc2cc(OC3OC(CO)C(O)C(O)C3O)cc(O)c12` (stereo not given) [GENISTIN] and `O=c1c(-c2ccc(O)cc2)coc2cc(OC3OC(CO)C(O)C(O)C3O)ccc12` (stereo not given) [DAIDZIN] are within 1.5-fold of each other in LC retention time: 4.57 min for the first, 4.08 min for the second.

First: CC(CCC(=O)O)C(=O)O (stereo not given) [2-METHYLGLUTARATE]
Second: O=C(O)CCC(=O)C(=O)O [OXOGLUTARATE]
The LC retention time of the first is 3.1-fold higher: 4.07 min for the first, 1.3 min for the second.

`CC(=O)OC(CC(=O)O)C[N+](C)(C)C` (stereo not given) [O-ACETYLCARNITINE] and `CC(=O)NCC(=O)O` [N-ACETYLGLYCINE] are within 1.5-fold of each other in LC retention time: 1.48 min for the first, 1.26 min for the second.

`Nc1ccn(C2CC(O)C(CO)O2)c(=O)n1` (stereo not given) [DEOXYCYTIDINE] and `Nc1ncnc2c1ncn2C1CC(O)C(COP(=O)(O)O)O1` (stereo not given) [DEOXYADENOSINE MONOPHOSPHATE] are within 1.5-fold of each other in LC retention time: 1.78 min for the first, 2.07 min for the second.

Going from `CC(=O)NC1C(O)OC(CO)C(O)C1OC(C)C(=O)O` (stereo not given) [N-ACETYLMURAMATE] to `OCc1ccccc1OC1OC(CO)C(O)C(O)C1O` (stereo not given) [SALICIN], the LC retention time rises from 1.09 min to 2.95 min (2.7-fold).

`O=C(O)CCCCCCCCCC(=O)O` [UNDECANEDIOIC ACID] and `CCCCCCCCCCCCCC(O)CC(=O)O` (stereo not given) [3-HYDROXYHEXADECANOIC ACID] are within 1.5-fold of each other in LC retention time: 6.09 min for the first, 8.7 min for the second.

`CC(C)c1cc2c(c(O)c1O)C1(C(=O)O)CCCC(C)(C)C1CC2` (stereo not given) [CARNOSIC ACID] and `Cc1c(O)cc2c(c1C)OC(C)(CCC(=O)O)CC2` (stereo not given) [GAMMA-CEHC] are within 1.5-fold of each other in LC retention time: 8.06 min for the first, 6.69 min for the second.

First: OCCc1c[nH]c2ccccc12 [INDOLE-3-ETHANOL]
Second: C[N+](C)(C)C(Cc1c[nH]c2ccccc12)C(=O)[O-] (stereo not given) [LENTICIN]
The LC retention time of the first is 1.6-fold higher: 5.81 min for the first, 3.64 min for the second.

First: O=C(O)C1CCCN1 (stereo not given) [PROLINE]
Second: O=C(O)CC1C(=O)Nc2ccccc21 (stereo not given) [3-OXINDOLE-3-ACETATE]
The LC retention time of the first is 4.7-fold lower: 0.916 min for the first, 4.29 min for the second.

Going from `Cc1cc2nc3c(=O)[nH]c(=O)nc-3n(CC(O)C(O)C(O)CO)c2cc1C` (stereo not given) [RIBOFLAVIN] to `CC(=O)Nc1c(NC=O)[nH]c(=O)n(C)c1=O` [5-ACETYLAMINO-6-FORMYLAMINO-3-METHYLURACIL], the LC retention time falls from 4.4 min to 1.11 min (4-fold).

`O=c1ccc2ccc3occc3c2o1` [ANGELICIN] and `COc1cc2ccc(=O)oc2cc1OC` [SCOPARONE] are within 1.5-fold of each other in LC retention time: 6.41 min for the first, 5.34 min for the second.

Compared with `CC1OC(OCC2OC(Oc3c(-c4ccc(O)c(O)c4)oc4cc(O)cc(O)c4c3=O)C(O)C(O)C2O)C(O)C(O)C1O` (stereo not given) [RUTIN], `OCC1OC(OCC2OC(OCC3OC(OC4(CO)OC(CO)C(O)C4O)C(O)C(O)C3O)C(O)C(O)C2O)C(O)C(O)C1O` (stereo not given) [STACHYOSE] is 4.6-fold lower in LC retention time: 4.25 min for the first, 0.921 min for the second.

`CC(CCC(=O)NCC(=O)O)C1CCC2C3CCC4CC(O)CCC4(C)C3CCC12C` (stereo not given) [LITHOCHOLIC ACID GLYCINE CONJUGATE] and `CC(CCC(=O)O)C1CCC2C3C(O)C(O)C4CC(O)CCC4(C)C3CCC12C` (stereo not given) [HYOCHOLIC ACID] are within 1.5-fold of each other in LC retention time: 7.62 min for the first, 6.98 min for the second.

`CC(C)CC1NC(=O)C2CCCN2C1=O` [L,L-CYCLO(LEUCYLPROLYL)] and `CC12CCC(=O)C=C1CCC1C2C(=O)CC2(C)C1CCC2(O)C(=O)CO` (stereo not given) [CORTISONE] are within 1.5-fold of each other in LC retention time: 4.92 min for the first, 6.12 min for the second.

`COc1cc(C(=O)O)ccc1O` [VANILLIC ACID] and `Cc1ccc(O)c(O)c1` [4-METHYLCATECHOL] are within 1.5-fold of each other in LC retention time: 3.91 min for the first, 4.34 min for the second.

First: NC(CCOC(=O)CCC(=O)O)C(=O)O (stereo not given) [O-SUCCINYL-HOMOSERINE]
Second: NCc1[nH]cc(CCC(=O)O)c1CC(=O)O [PORPHOBILINOGEN]
The LC retention time of the first is 2.1-fold lower: 1.68 min for the first, 3.51 min for the second.

`O=C(O)c1cccnc1` [NICOTINATE] and `O=C(O)c1cccnc1C(=O)O` [QUINOLINATE] are within 1.5-fold of each other in LC retention time: 1.42 min for the first, 1.61 min for the second.

`O=c1cc(-c2ccc(O)c(-c3c(O)cc(O)c4c(=O)cc(-c5ccc(O)cc5)oc34)c2)oc2cc(O)cc(O)c12` [AMENTOFLAVONE] and `O=c1c(-c2ccc(O)cc2)coc2cc(O)cc(O)c12` [GENISTEIN] are within 1.5-fold of each other in LC retention time: 6.35 min for the first, 6.07 min for the second.

Compared with `O=C1CCCCO1` [5-VALEROLACTONE], `CC(C=CC1=C(C)CCCC1(C)C)=CC=CC(C)=CC(=O)O` [RETINOATE] is 1.8-fold higher in LC retention time: 4.9 min for the first, 9.05 min for the second.

`OCC1OC(Oc2ccc3c(c2)OCC2c4cc5c(cc4OC32)OCO5)C(O)C(O)C1O` (stereo not given) [TRIFOLIRHIZIN] and `COc1cc(C2Oc3cc(C4Oc5cc(O)cc(O)c5C(=O)C4O)ccc3OC2CO)ccc1O` (stereo not given) [SILIBININ] are within 1.5-fold of each other in LC retention time: 4.35 min for the first, 5.88 min for the second.

Going from `CC(=O)NC(CC(N)=O)C(=O)O` (stereo not given) [N-ACETYLASPARAGINE] to `N[C@@H](Cc1cc(I)c(O)c(I)c1)C(=O)O` [3,5-DIIODO-L-TYROSINE], the LC retention time rises from 1.1 min to 4.59 min (4.2-fold).

First: Cn1c(=O)c2[nH]cnc2n(C)c1=O [THEOPHYLLINE]
Second: Cn1c(=O)[nH]c(=O)c2[nH]cnc21 [3-METHYLXANTHINE]
The LC retention time of the first is 3-fold higher: 3.96 min for the first, 1.3 min for the second.

`O=S(=O)(O)Oc1ccccc1` [PHENOL SULFATE] and `Nc1ccccc1O` [2-AMINOPHENOL] are within 1.5-fold of each other in LC retention time: 1.17 min for the first, 1.62 min for the second.

`O=C(O)Cc1c[nH]c2ccc(O)cc12` [5-HYDROXYINDOLEACETATE] and `O=C(O)C=Cc1cccc(O)c1` [M-COUMARIC ACID] are within 1.5-fold of each other in LC retention time: 4.41 min for the first, 4.77 min for the second.

`O=c1cc(-c2ccccc2)oc2ccccc12` [FLAVONE] and `O=c1oc2cc(O)ccc2c2oc3cc(O)ccc3c12` [COUMESTEROL] are within 1.5-fold of each other in LC retention time: 7.23 min for the first, 6.04 min for the second.

Going from `Cc1ncc(CO)c(C=O)c1O` [PYRIDOXAL] to `OCCc1ccc(O)c(O)c1` [HYDROXYTYROSOL], the LC retention time rises from 0.923 min to 3.89 min (4.2-fold).

`CC1(C)C=Cc2c(ccc3c2OCC(c2ccc(O)cc2O)C3)O1` [(R)-GLABRIDIN] and `COc1cc(CC2COC(=O)C2Cc2ccc(O)c(OC)c2)ccc1O` (single isomer, unassigned; (-)) [(-)-MATAIRESINOL] are within 1.5-fold of each other in LC retention time: 7.48 min for the first, 6.12 min for the second.

`CCCCC(CC)COC(=O)c1ccccc1C(=O)OCC(CC)CCCC` (stereo not given) [BIS(2-ETHYLHEXYL)PHTHALATE] and `CCCCCC=CCC=CCC=CCC=CCCCC(=O)O` [ARACHIDONIC ACID] are within 1.5-fold of each other in LC retention time: 10.7 min for the first, 9 min for the second.

First: CC(=O)OCC(=O)C1(O)CCC2C3CCC4=CC(=O)CCC4(C)C3C(O)CC21C (stereo not given) [CORTISOL 21-ACETATE]
Second: NC(=O)c1ccc[n+](C2OC(COP(=O)([O-])O)C(O)C2O)c1 (stereo not given) [NICOTINAMIDE MONONUCLEOTIDE]
The LC retention time of the first is 7.2-fold higher: 6.92 min for the first, 0.959 min for the second.

Work on `O=C(C=Cc1ccc(O)c(O)c1)OC(Cc1ccc(O)c(O)c1)C(=O)O` (stereo not given) [ROSMARINATE] yielded an LC retention time of 5.44 min.
